Measurements from PubChem BioAssay AID2060483 (Molecular Pharmacology Branch, DTP, NCI, 2025).

System: K24384-001-R-PDC complex spheroids, viability
Experiment: Anticancer human tumor K24384-001-R-PDC patient-derived pancreatic adenocarcinoma cell line growth inhibition [GQUAD]
Conditions: for IC50: curve of first compound; for viability, T/C: stronger effect = lower value
Method in brief: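 Viability of tumor cells grown as complex spheroids with endothelial and stromal cells, exposed to drug combinations. Top concentration at or near clinical Cmax (else 10 microM), diluted in half-log increments.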

[1] = second compound 0.0316 µM, first compound 0.0316 µM
[2] = second compound 0.0316 µM, first compound 0.1 µM
[3] = second compound 0.0316 µM, first compound 0.316 µM
[4] = second compound 0.0316 µM, first compound 1 µM
[5] = second compound 0.0316 µM, first compound 3.16 µM
[6] = second compound 0.0316 µM, first compound 10 µM
[7] = second compound 0.1 µM, first compound 0.0316 µM
[8] = second compound 0.1 µM, first compound 0.1 µM
[9] = second compound 0.1 µM, first compound 0.316 µM
[10] = second compound 0.1 µM, first compound 1 µM
[11] = second compound 0.1 µM, first compound 3.16 µM
[12] = second compound 0.1 µM, first compound 10 µM
[13] = second compound 0.316 µM, first compound 0.0316 µM
[14] = second compound 0.316 µM, first compound 0.1 µM
[15] = second compound 0.316 µM, first compound 0.316 µM
[16] = second compound 0.316 µM, first compound 1 µM
[17] = second compound 0.316 µM, first compound 3.16 µM
[18] = second compound 0.316 µM, first compound 10 µM
[19] = second compound 1 µM, first compound 0.0316 µM
[20] = second compound 1 µM, first compound 0.1 µM
[21] = second compound 1 µM, first compound 0.316 µM
[22] = second compound 1 µM, first compound 1 µM
[23] = second compound 1 µM, first compound 3.16 µM
[24] = second compound 1 µM, first compound 10 µM
[25] = second compound 3.16 µM, first compound 0.0316 µM
[26] = second compound 3.16 µM, first compound 0.1 µM
[27] = second compound 3.16 µM, first compound 0.316 µM
[28] = second compound 3.16 µM, first compound 1 µM
[29] = second compound 3.16 µM, first compound 3.16 µM
[30] = second compound 3.16 µM, first compound 10 µM
[31] = second compound 10 µM, first compound 0.0316 µM
[32] = second compound 10 µM, first compound 0.1 µM
[33] = second compound 10 µM, first compound 0.316 µM
[34] = second compound 10 µM, first compound 1 µM
[35] = second compound 10 µM, first compound 3.16 µM
[36] = second compound 10 µM, first compound 10 µM
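Further: spheroids exposed to compounds for seven days.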

How did the IC50 (second compound 0.0316 µM) turn out when `C=CC(=O)N1CCN(c2nc(=O)n(-c3c(C)ccnc3C(C)C)c3nc(-c4c(O)cccc4F)c(F)cc23)C(C)C1` (centres undefined) + Cc1cnc(CNC(=O)c2c(=O)c3ccc(N4CCCN(C)CC4)nc3n3c2sc2ccccc23)cn1 was run?
The IC50 was over 10 µM.

And the IC50 (second compound 0.1 µM)?
The IC50 was 8.78 µM.

What about the IC50 (second compound 0.316 µM) of the same molecule?
Its IC50 is over 10 µM.

And the IC50 (second compound 1 µM)?
Its IC50 is under 0.0316 µM.

And the IC50 (second compound 3.16 µM)?
Its IC50 is under 0.0316 µM.

What about the IC50 (second compound 10 µM) of the same molecule?
Its IC50 is under 0.0316 µM.

What about the viability, T/C [1] of the same molecule?
The viability, T/C was 79.5%.

What about the viability, T/C [2] of the same molecule?
Its viability, T/C is 78.9%.

What about the viability, T/C [3] of the same molecule?
Its viability, T/C is 92.1%.

What about the viability, T/C [4] of the same molecule?
Its viability, T/C is 88.5%.

What about the viability, T/C [5] of the same molecule?
The viability, T/C was 98.4%.

What about the viability, T/C [6] of the same molecule?
The viability, T/C was 83.2%.

What about the viability, T/C [7] of the same molecule?
Its viability, T/C is 54.7%.

And the viability, T/C [8]?
Its viability, T/C is 78%.

And the viability, T/C [9]?
Its viability, T/C is 53.6%.

What about the viability, T/C [10] of the same molecule?
The viability, T/C was 64.6%.

And the viability, T/C [11]?
Its viability, T/C is 58.8%.

And the viability, T/C [12]?
Its viability, T/C is 48.9%.

What about the viability, T/C [13] of the same molecule?
Its viability, T/C is 48.3%.

What about the viability, T/C [14] of the same molecule?
The viability, T/C was 71.5%.

And the viability, T/C [15]?
Its viability, T/C is 64.3%.

What about the viability, T/C [16] of the same molecule?
Its viability, T/C is 65.5%.

What about the viability, T/C [17] of the same molecule?
The viability, T/C was 70.8%.

What about the viability, T/C [18] of the same molecule?
The viability, T/C was 49.3%.

What about the viability, T/C [19] of the same molecule?
The viability, T/C was 41%.

And the viability, T/C [20]?
Its viability, T/C is 52.3%.

What about the viability, T/C [21] of the same molecule?
The viability, T/C was 42.5%.

What about the viability, T/C [22] of the same molecule?
The viability, T/C was 66.3%.

What about the viability, T/C [23] of the same molecule?
Its viability, T/C is 59.9%.

What about the viability, T/C [24] of the same molecule?
The viability, T/C was 47.7%.

What about the viability, T/C [25] of the same molecule?
The viability, T/C was 35.3%.

What about the viability, T/C [26] of the same molecule?
The viability, T/C was 48.6%.

What about the viability, T/C [27] of the same molecule?
Its viability, T/C is 39.6%.

What about the viability, T/C [28] of the same molecule?
Its viability, T/C is 47.5%.

What about the viability, T/C [29] of the same molecule?
The viability, T/C was 47.5%.

What about the viability, T/C [30] of the same molecule?
The viability, T/C was 37.5%.

What about the viability, T/C [31] of the same molecule?
The viability, T/C was 20.8%.

And the viability, T/C [32]?
The viability, T/C was 23.7%.

What about the viability, T/C [33] of the same molecule?
Its viability, T/C is 31.4%.

And the viability, T/C [34]?
The viability, T/C was 42%.

What about the viability, T/C [35] of the same molecule?
The viability, T/C was 23.3%.

And the viability, T/C [36]?
The viability, T/C was 22.7%.

`O=C(c1cc(Cc2n[nH]c(=O)c3ccccc23)ccc1F)N1CCN(C(=O)C2CC2)CC1` + Cc1cnc(CNC(=O)c2c(=O)c3ccc(N4CCCN(C)CC4)nc3n3c2sc2ccccc23)cn1 was tested. Which IC50 (second compound 0.0316 µM) did it give?
The IC50 was over 10 µM.

And the IC50 (second compound 0.1 µM)?
The IC50 was over 10 µM.

And the IC50 (second compound 0.316 µM)?
The IC50 was over 10 µM.

And the IC50 (second compound 1 µM)?
The IC50 was 0.0316 µM.

What about the IC50 (second compound 3.16 µM) of the same molecule?
The IC50 was under 0.0316 µM.

What about the IC50 (second compound 10 µM) of the same molecule?
The IC50 was under 0.0316 µM.

And the viability, T/C [1]?
Its viability, T/C is 88.4%.

And the viability, T/C [2]?
Its viability, T/C is 93.5%.

What about the viability, T/C [3] of the same molecule?
The viability, T/C was 92.8%.

What about the viability, T/C [4] of the same molecule?
Its viability, T/C is 113%.

And the viability, T/C [5]?
The viability, T/C was 94.8%.

What about the viability, T/C [6] of the same molecule?
Its viability, T/C is 86.3%.

And the viability, T/C [7]?
The viability, T/C was 71.8%.

And the viability, T/C [8]?
The viability, T/C was 88.7%.

What about the viability, T/C [9] of the same molecule?
The viability, T/C was 66.9%.

And the viability, T/C [10]?
The viability, T/C was 83.6%.

What about the viability, T/C [11] of the same molecule?
The viability, T/C was 70.9%.

What about the viability, T/C [12] of the same molecule?
The viability, T/C was 80.7%.

What about the viability, T/C [13] of the same molecule?
The viability, T/C was 62.5%.

And the viability, T/C [14]?
The viability, T/C was 81.5%.

What about the viability, T/C [15] of the same molecule?
The viability, T/C was 60%.

What about the viability, T/C [16] of the same molecule?
Its viability, T/C is 88.3%.

What about the viability, T/C [17] of the same molecule?
Its viability, T/C is 88.7%.

And the viability, T/C [18]?
The viability, T/C was 62.5%.

What about the viability, T/C [19] of the same molecule?
The viability, T/C was 53%.

And the viability, T/C [20]?
The viability, T/C was 48.4%.

And the viability, T/C [21]?
Its viability, T/C is 49.1%.

What about the viability, T/C [22] of the same molecule?
The viability, T/C was 67.4%.

What about the viability, T/C [23] of the same molecule?
Its viability, T/C is 60.2%.

And the viability, T/C [24]?
Its viability, T/C is 49.7%.

What about the viability, T/C [25] of the same molecule?
Its viability, T/C is 43.5%.

And the viability, T/C [26]?
The viability, T/C was 52.8%.

What about the viability, T/C [27] of the same molecule?
The viability, T/C was 47.6%.

What about the viability, T/C [28] of the same molecule?
Its viability, T/C is 59.5%.

What about the viability, T/C [29] of the same molecule?
Its viability, T/C is 38.3%.

What about the viability, T/C [30] of the same molecule?
The viability, T/C was 50.9%.

What about the viability, T/C [31] of the same molecule?
The viability, T/C was 40.5%.

And the viability, T/C [32]?
The viability, T/C was 24.1%.

And the viability, T/C [33]?
The viability, T/C was 43.3%.

And the viability, T/C [34]?
The viability, T/C was 45.6%.

And the viability, T/C [35]?
The viability, T/C was 27.9%.

And the viability, T/C [36]?
Its viability, T/C is 12.3%.
